Read-outs that look alike come from different tables or passages of the source.
Key:
RORγt [1] = molecular target: T1, RORγt (Homo sapiens, UniProt P51449); assay: RORγt binding test using fluorescent-labeled synthetic ligand (TR-FRET); conditions: read-out: Binding inhibitory rate of fluorescent-labeled synthetic ligand to RORγt at test compound 1 μM (%)
T1 sequence (P51449 1-497 isoform P51449-2): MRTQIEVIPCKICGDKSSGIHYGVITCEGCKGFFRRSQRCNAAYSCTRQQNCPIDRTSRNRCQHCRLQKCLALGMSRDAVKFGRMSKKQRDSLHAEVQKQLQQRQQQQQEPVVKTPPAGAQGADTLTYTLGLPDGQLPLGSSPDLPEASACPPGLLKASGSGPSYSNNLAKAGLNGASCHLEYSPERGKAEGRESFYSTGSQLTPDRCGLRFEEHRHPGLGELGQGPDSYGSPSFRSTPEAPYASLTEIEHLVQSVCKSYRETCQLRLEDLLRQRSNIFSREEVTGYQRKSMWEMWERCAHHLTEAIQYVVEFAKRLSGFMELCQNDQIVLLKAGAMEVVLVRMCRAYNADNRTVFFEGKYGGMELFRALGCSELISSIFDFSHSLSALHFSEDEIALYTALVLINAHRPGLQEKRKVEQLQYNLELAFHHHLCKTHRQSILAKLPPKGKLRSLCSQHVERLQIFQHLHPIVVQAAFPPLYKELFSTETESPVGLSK
Procedure: RORγt Binding Test Using Fluorescent-labeled Synthetic Ligand
(§1) The binding activity of the test compound to RORγt was measured by a time resolved fluorescence resonance energy transfer method (TR-FRET) utilizing histidine-tagged RORγt, fluorescent-labeled synthetic ligand, and terbium-labeled anti-histidine tag antibody (Invitrogen). First, a test compound diluted with an assay buffer (20 mM Tris-HCl (pH 7.5), 100 mM NaCl, 1 mM DTT, 0.1% BSA) was added to a 384 well plate by 3 μL. Then, RORγt diluted with an assay buffer to 240 nM was added by 3 μL, after which fluorescent-labeled synthetic ligand diluted with the assay buffer to 12 μM was added by 3 μL, and the mixture was stood at room temperature for 20 min. Thereafter, a terbium-labeled anti-histidine tag antibody diluted with the assay buffer to 8 nM was added by 3 μL. The mixture was stood at room temperature for 20 min, and fluorescence intensity (excitation wavelength 320 nm, fluorescence wavelength 520 nm, delay time 100 microseconds) was measured by Envision (PerkinElmer).

RORγt [2] = molecular target: T1, RORγt; assay: Cofactor recruitment test (Alpha Screen, biotinylated SRC-1 peptide); type: biochemical; conditions: read-out: Signal value inhibitory rate at test compound 1 μM (%)
Procedure: Cofactor Recruitment Test
Cofactor recruitment test was performed by Alpha Screen (Histidine Detection Kit, PerkinElmer) method. First, a test compound was diluted with an assay buffer (50 mM Tris-HCl (pH 7.5), 50 mM KCl, 1 mM DTT, 0.1% BSA) and added to a 384 well plate by 5 μL. […] The mixture was stood in a dark place for 1 hr, and the signal value was measured by Envision (PerkinElmer).

RORγt [3] = molecular target: T1, RORγt; assay: Jurkat reporter test (human IL-17 ROR response element luciferase, RORγt vector); type: cell-based; conditions: read-out: Luminescence level inhibitory rate at test compound 3 μM (%)
Procedure: The Jurkat cells used for the reporter test were cultured in a culture medium (RPMI (Invitrogen), 10% FCS (AusGeneX), 100 U/mL penicillin, 100 μg/mL streptomycin). On the day of the test, 4×10^7 cells were recovered by a centrifugal operation (1000 rpm, 5 min.) and suspended in PBS (phosphate buffered saline) (Invitrogen). Thereafter, the cells were recovered again by a centrifugal operation, and suspended in 2 mL of R buffer (NEON transfection kit, Invitrogen). […] Gene transfer was performed by Electroporation apparatus (NEON, Invitrogen) under the conditions of pulse voltage 1350 V, interval 10 milliseconds, number of times 3. The cells after gene transfer were suspended in 40 mL of a reaction medium (RPMI, 10% Lipid reduced FCS (HyClone), 10 mM HEPES (pH 7.5), 100 U/mL penicillin, 100 μg/mL streptomycin, 5 μM lovastatin), and plated in a 96 well plate by 90 μL. A test compound diluted with the reaction medium was added by 10 μL, and the cells were cultured overnight in an incubator. Bright-Glo (Promega) was added by 100 μL, and the mixture was stirred at room temperature for 10 min, and the luminescence level was measured by Envision (PerkinElmer).

RORγt [4] = molecular target: T1, RORγt; assay: RORγt binding test using fluorescent-labeled cholesterol (TR-FRET); conditions: read-out: Binding inhibitory rate of fluorescent-labeled cholesterol to RORγt at test compound 1 μM (%)
Procedure: RORγt Binding Test Using Fluorescent-labeled Cholesterol
as §1, with “cholesterol (BODIPY-cholesterol, AVIVA),” for “synthetic ligand,”, “cholesterol” for “synthetic ligand”

[5] = test compound 3 μM, Jurkat cells

Structure (SMILES) | inhibition at 1 µM (RORγt [1]) | inhibition at 1 µM (RORγt [2]) | inhibition at 3 µM (RORγt [3]; Jurkat) | inhibition at 1 µM (RORγt [4]) | inhibition at 3 µM (RORγt [3]; [5])
CC[Si](C)(C)c1c(F)cc(NC(=O)[C@H]2c3ccc(OC)cc3CCN2C(=O)Cc2cc(O)no2)cc1F [Example 88, (1R)-N-(4-(ethyl (dimethyl)silyl)-3,5-difluorophenyl)-2-((3-hydroxy-1,2-oxazol-5-yl)acetyl)-6-methoxy-1,2,3,4-tetrahydroisoquinoline-1-carboxamide] | 102% | – | – | – | –
C[Si](C)(C)c1ccc(NC(=O)[C@H]2c3ccc(OC(F)F)cc3CCN2C(=O)CCCC(=O)O)cc1F [Example 194, 5-((1R)-6-(difluoromethoxy)-1-((3-fluoro-4-(trimethylsilyl)phenyl)carbamoyl)-3,4-dihydroisoquinolin-2(1H)-yl)-5-oxopentanoic acid] | 101% | 87% | 100% | – | –
CCOc1ccc2c(c1)CCN(C(=O)[C@H](O)CCC(=O)O)[C@H]2C(=O)Nc1cc(F)c([Si](C)(C)C)c(F)c1 [Example 209, (4R)-5-((1R)-1-((3,5-difluoro-4-(trimethylsilyl)phenyl)carbamoyl)-6-ethoxy-3,4-dihydroisoquinolin-2(1H)-yl)-4-hydroxy-5-oxopentanoic acid] | 102% | 87% | 99% | – | –
COc1ccc2c(c1)CCN(C(=O)[C@@H](O)CCC(=O)O)[C@H]2C(=O)Nc1cc(F)c([Si](C)(C)C)c(F)c1 [Example 248, (4S)-5-((1R)-1-((3,5-difluoro-4-(trimethylsilyl)phenyl)carbamoyl)-6-methoxy-3,4-dihydroisoquinolin-2(1H)-yl)-4-hydroxy-5-oxopentanoic acid] | 101% | 87% | 100% | – | –
CCOc1ccc2c(c1)CCN(C(=O)CCCC(=O)O)[C@H]2C(=O)Nc1cc(F)c([Si](C)(C)C)cc1F [Example 184, 5-((1R)-1-((2,5-difluoro-4-(trimethylsilyl)phenyl)carbamoyl)-6-ethoxy-3,4-dihydroisoquinolin-2(1H)-yl)-5-oxopentanoic acid] | 101% | 93% | 100% | – | –
C[Si](C)(C)c1c(F)cc(NC(=O)[C@H]2c3ccc(S(C)(=O)=O)cc3CCN2C(=O)CCCC(=O)O)cc1F [Example 235, 5-((1R)-1-((3,5-difluoro-4-(trimethylsilyl)phenyl)carbamoyl)-6-(methylsulfonyl)-3,4-dihydroisoquinolin-2(1H)-yl)-5-oxopentanoic acid] | 102% | 45% | 93% | – | –
CCOc1ccc2c(c1)CCN(C(=O)NCCCC(=O)O)[C@H]2C(=O)Nc1cc(F)c([Si](C)(C)C)c(F)c1 [Example 238, 4-((((1R)-1-((3,5-difluoro-4-(trimethylsilyl)phenyl)carbamoyl)-6-ethoxy-3,4-dihydroisoquinolin-2(1H)-yl)carbonyl)amino)butanoic acid] | 101% | 92% | 100% | – | –
COc1ccc2c(c1)CCN(C(=O)CCCC(=O)O)[C@H]2C(=O)Nc1cc(F)c(C(C)(C)COCC2CC2)c(F)c1 [Example 161, 5-((1R)-1-((4-(1-(cyclopropylmethoxy)-2-methylpropan-2-yl)-3,5-difluorophenyl)carbamoyl)-6-methoxy-3,4-dihydroisoquinolin-2 (1H)-yl)-5-oxopentanoic acid] | – | 76% | – | 100% | 90%
CC[Si](C)(C)c1c(F)cc(NC(=O)[C@H]2c3ccc(OC)cc3CCN2C(=O)CCC(=O)O)cc1F [Example 87, 4-((1R)-1-((4-(ethyl (dimethyl)silyl)-3,5-difluorophenyl)carbamoyl)-6-methoxy-3,4-dihydroisoquinolin-2 (1H)-yl)-4-oxobutanoic acid] | – | 98% | 102% | 102% | –
CC[Si](C)(C)c1c(F)cc(NC(=O)[C@H]2c3ccc(OC)nc3CCN2C(=O)Cc2cc(O)no2)cc1F [Example 113, (5R)-N-(4-(ethyl (dimethyl)silyl)-3,5-difluorophenyl)-6-((3-hydroxy-1,2-oxazol-5-yl)acetyl)-2-methoxy-5,6,7,8-tetrahydro-1,6-naphthyridine-5-carboxamide] | – | 99% | 101% | 104% | –
CCOc1ccc2c(n1)CCN(C(=O)c1cc(O)no1)[C@H]2C(=O)Nc1ccc([Si](C)(C)C)c(F)c1 [Example 149, (5R)-2-ethoxy-N-(3-fluoro-4-(trimethylsilyl)phenyl)-6-((3-hydroxy-1,2-oxazol-5-yl)carbonyl)-5,6,7,8-tetrahydro-1,6-naphthyridine-5-carboxamide] | – | 99% | 103% | 103% | –
COc1ccc2c(c1)CCN(C(=O)CCCC(=O)O)[C@H]2C(=O)Nc1cc(F)c(C(C)(C)COCC(F)F)c(F)c1 [Example 162, 5-((1R)-1-((4-(1-(2,2-difluoroethoxy)-2-methylpropan-2-yl)-3,5-difluorophenyl)carbamoyl)-6-methoxy-3,4-dihydroisoquinolin-2(1H)-yl)-5-oxopentanoic acid] | – | 82% | – | 99% | 95%
COc1ccc2c(c1)CCN(C(=O)c1cc(O)no1)[C@H]2C(=O)Nc1cc(F)c(C(C)(C)COCC(F)F)c(F)c1 [Example 160, (1R)-N-(4-(1-(2,2-difluoroethoxy)-2-methylpropan-2-yl)-3,5-difluorophenyl)-2-((3-hydroxy-1,2-oxazol-5-yl)carbonyl)-6-methoxy-1,2,3,4-tetrahydroisoquinoline-1-carboxamide] | – | 82% | – | 100% | 98%
CC[Si](C)(C)c1c(F)cc(NC(=O)[C@H]2c3ccc(COC)nc3CCN2C(=O)c2cc(O)no2)cc1F [Example 174, (5R)-N-(4-(ethyl (dimethyl)silyl)-3,5-difluorophenyl)-6-((3-hydroxy-1,2-oxazol-5-yl)carbonyl)-2-(methoxymethyl)-5,6,7,8-tetrahydro-1,6-naphthyridine-5-carboxamide] | – | 88% | 98% | 101% | –
COc1ccc2c(c1)CCN(C(=O)CCO)[C@H]2C(=O)Nc1ccc(C(C)(C)C)c(F)c1 [Example 30, (1R)-N-(4-tert-butyl-3-fluorophenyl)-2-(3-hydroxypropanoyl)-6-methoxy-1,2,3,4-tetrahydroisoquinoline-1-carboxamide] | – | 82% | – | 102% | 99.8%

Source: patent publication US10053468B2, “Heterocyclic compound” (TAKEDA PHARMACEUTICAL COMPANY LIMITED, priority 2013, dated 2018)
